Data published in ChEMBL document CHEMBL5143530 (Bioorg Med Chem Lett, 2022).
Active and inactive are the calls of the source. The rule behind the calls is not given here.

Key:
LNCaP [1] = assay: Antiproliferative activity against human LNCAP cells assessed as reduction in cell viability at 100 uM incubated for 5 days; type: functional, cell-based; conditions: time 5.0 day
Histone deacetylase 1 [2] = biological target: T1, Histone deacetylase 1 (Homo sapiens, UniProt Q13547); assay: Inhibition of purified human HDAC1 using Ac-Leu-Gly-(e-Ac)Lys-AMC by fluorometric HDAC assay
Androgen receptor = biological target: T2, Androgen receptor (Homo sapiens, UniProt P10275); assay: Anti-androgenic activity at androgen receptor (unknown origin) expressed in HEK293 cells by BRET assay; type: cell-based
T2 sequence (P10275 whole entry): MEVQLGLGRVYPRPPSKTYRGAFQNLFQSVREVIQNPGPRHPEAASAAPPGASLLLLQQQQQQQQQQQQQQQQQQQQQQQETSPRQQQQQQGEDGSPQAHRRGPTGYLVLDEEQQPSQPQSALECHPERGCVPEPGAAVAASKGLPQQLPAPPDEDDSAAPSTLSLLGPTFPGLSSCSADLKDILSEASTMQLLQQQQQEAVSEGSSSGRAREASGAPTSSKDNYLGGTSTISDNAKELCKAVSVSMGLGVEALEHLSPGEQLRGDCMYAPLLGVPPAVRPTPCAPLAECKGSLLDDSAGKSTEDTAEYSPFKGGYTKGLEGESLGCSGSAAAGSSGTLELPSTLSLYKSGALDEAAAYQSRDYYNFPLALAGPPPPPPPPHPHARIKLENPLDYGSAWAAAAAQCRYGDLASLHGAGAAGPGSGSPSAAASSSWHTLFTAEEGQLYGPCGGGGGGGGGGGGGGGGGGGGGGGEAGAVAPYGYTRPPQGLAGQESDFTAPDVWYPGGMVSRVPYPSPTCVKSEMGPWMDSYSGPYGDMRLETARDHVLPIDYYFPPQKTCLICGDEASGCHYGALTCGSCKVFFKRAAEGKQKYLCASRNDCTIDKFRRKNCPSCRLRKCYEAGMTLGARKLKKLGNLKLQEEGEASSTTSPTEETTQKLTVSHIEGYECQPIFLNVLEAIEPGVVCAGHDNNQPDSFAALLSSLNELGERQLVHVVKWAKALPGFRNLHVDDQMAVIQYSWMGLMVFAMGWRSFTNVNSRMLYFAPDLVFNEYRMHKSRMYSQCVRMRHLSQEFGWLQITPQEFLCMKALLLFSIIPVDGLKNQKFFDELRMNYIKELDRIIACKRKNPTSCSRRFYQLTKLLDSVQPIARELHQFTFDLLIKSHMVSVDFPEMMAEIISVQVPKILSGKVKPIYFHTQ

Histone deacetylase 1 [3] = biological target: T1, Histone deacetylase 1; assay: Inhibition of purified human HDAC1 using Ac-Leu-Gly-(e-Ac)Lys-AMC pre-incubated for 18 hrs by fluorometric HDAC assay
[4] = Antiproliferative activity against human BHPrS cells assessed as reduction in cell viability at 1 to 100 uM incubated for 72 hrs; type: toxicity, cell-based; conditions: dose 1-100 µM
LNCaP [5] = assay: Antiproliferative activity against human LNCAP cells assessed as reduction in cell viability at 10 uM incubated for 72 hrs; type: functional, cell-based
LNCaP [6] = assay: Antiproliferative activity against human LNCAP cells assessed as reduction in cell viability at 10 uM incubated for 5 days; type: functional, cell-based; conditions: time 5.0 day
[7] = biological target: Class 1 histone deacetylase (Homo sapiens) (UniProt Q13547+O15379+Q92769+Q9BY41); assay: Inhibition of type I nuclear HDACs in human LNCaP cells assessed as induction of histone H3 and H4 acetylation at 10 uM by Western blotting; type: cell-based
LNCaP [8] = assay: Antiproliferative activity against human LNCAP cells assessed as reduction in cell viability at 100 uM incubated for 72 hrs; type: functional, cell-based
PC-3 = assay: Antiproliferative activity against human PC-3 cells assessed as reduction in cell viability at 1 to 100 uM incubated for 72 hrs; type: functional, cell-based; conditions: dose 1-100 µM
BPH-1 = assay: Antiproliferative activity against human BPH-1 cells assessed as reduction in cell viability at 1 to 100 uM incubated for 72 hrs; type: functional, cell-based; conditions: dose 1-100 µM
[9] = Inhibition of purified human HDAC2 using Ac-Leu-Gly-(e-Ac)Lys-AMC by fluorometric HDAC assay

T1 sequence (Q13547 whole entry): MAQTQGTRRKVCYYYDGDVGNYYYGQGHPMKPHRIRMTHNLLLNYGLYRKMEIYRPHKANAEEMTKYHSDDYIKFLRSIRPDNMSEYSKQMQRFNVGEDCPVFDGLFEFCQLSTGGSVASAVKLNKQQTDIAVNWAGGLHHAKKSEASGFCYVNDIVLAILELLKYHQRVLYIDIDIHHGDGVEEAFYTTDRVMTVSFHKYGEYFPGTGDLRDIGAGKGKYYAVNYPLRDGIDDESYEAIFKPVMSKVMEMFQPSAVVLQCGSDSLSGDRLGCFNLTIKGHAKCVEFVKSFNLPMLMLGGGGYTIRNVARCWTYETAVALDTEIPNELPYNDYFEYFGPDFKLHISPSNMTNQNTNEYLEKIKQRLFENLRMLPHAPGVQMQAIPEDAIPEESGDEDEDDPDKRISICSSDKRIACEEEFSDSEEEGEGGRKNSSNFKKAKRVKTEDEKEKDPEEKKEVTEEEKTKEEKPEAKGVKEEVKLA
Chain of Class 1 histone deacetylase (Homo sapiens) (O15379 whole entry, looked up): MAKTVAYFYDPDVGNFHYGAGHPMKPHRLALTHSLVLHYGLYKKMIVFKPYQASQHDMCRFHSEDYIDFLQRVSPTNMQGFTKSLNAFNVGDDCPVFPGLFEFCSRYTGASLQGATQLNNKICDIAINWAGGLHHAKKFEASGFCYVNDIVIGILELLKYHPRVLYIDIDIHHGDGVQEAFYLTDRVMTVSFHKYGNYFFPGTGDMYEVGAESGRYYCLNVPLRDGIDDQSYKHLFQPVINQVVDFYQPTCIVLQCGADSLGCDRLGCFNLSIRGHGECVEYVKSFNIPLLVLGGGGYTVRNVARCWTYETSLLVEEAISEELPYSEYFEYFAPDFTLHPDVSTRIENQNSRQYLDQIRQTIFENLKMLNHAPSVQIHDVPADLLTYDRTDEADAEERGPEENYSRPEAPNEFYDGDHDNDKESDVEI
Chain of Class 1 histone deacetylase (Homo sapiens) (Q13547 whole entry, looked up): as the sequence (Q13547 whole entry) above
Chain of Class 1 histone deacetylase (Homo sapiens) (Q92769 whole entry, looked up): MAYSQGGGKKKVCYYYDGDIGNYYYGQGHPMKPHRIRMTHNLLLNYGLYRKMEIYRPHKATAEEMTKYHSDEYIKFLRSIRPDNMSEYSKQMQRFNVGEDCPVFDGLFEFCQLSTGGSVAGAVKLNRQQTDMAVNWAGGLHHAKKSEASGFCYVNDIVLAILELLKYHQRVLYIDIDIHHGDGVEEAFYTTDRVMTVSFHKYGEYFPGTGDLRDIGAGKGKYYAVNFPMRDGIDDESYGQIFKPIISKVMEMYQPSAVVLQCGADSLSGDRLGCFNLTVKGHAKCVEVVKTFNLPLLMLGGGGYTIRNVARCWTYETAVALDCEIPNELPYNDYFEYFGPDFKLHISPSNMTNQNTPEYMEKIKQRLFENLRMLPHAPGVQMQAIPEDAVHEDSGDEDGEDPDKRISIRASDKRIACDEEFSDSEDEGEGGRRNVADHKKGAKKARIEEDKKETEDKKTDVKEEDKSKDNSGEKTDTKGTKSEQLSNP
Chain of Class 1 histone deacetylase (Homo sapiens) (Q9BY41 whole entry, looked up): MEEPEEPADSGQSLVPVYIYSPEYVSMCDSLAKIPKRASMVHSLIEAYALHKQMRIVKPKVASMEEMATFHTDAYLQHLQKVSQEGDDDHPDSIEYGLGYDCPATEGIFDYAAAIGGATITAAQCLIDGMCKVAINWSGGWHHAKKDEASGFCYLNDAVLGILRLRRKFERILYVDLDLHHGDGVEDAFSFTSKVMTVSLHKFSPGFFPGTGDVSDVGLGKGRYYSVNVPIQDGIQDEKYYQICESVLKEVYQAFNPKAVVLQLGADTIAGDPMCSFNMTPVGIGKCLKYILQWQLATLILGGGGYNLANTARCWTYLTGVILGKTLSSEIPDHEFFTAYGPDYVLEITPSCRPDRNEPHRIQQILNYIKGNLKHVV

SMILES | Activity (LNCaP [1]) | IC50 (Histone deacetylase 1 [2]) | IC50 (Androgen receptor) | also measured
CC1(C)C(=O)N(c2ccc(C#N)c(C(F)(F)F)c2)C(=S)N1CCCCC(=O)NO | Active | 3.09 µM | 1.17 µM | –
CC1(C)C(=O)N(c2ccc(C#N)c(C(F)(F)F)c2)C(=S)N1c1ccc(C(=O)Nc2cc(-c3ccccc3)ccc2N)cc1 | – | – | > 10 µM | IC50 (Histone deacetylase 1 [3]): 5.96 µM
CC1(C)C(=O)N(c2ccc(C#N)c(C(F)(F)F)c2)C(=S)N1c1ccc(C(=O)Nc2cc(-c3cccs3)ccc2N)nc1 | – | 3.67 µM | > 10 µM | –
CC1(C)C(=O)N(c2ccc(C#N)c(C(F)(F)F)c2)C(=S)N1c1ccc(C(=O)Nc2cc(-c3cccs3)ccc2N)cn1 | – | 11.1 µM | > 10 µM | –
CC1(C)C(=O)N(c2ccc(C#N)c(C(F)(F)F)c2)C(=S)N1C12CC(CC(=O)Nc3ccccc3N)(C1)C2 | – | > 1000 µM | 0.19 µM | –
CC1(C)C(=O)N(c2ccc(C#N)c(C(F)(F)F)c2)C(=S)N1c1ccc(C(=O)Nc2ccccc2N)cc1 | Active | 1.33 µM | 0.98 µM | Activity [4]: Non-Toxic; Activity (LNCaP [5]): Active; Activity (LNCaP [6]): Active; inhibition [7]: Active; Activity (LNCaP [8]): Active; Activity (PC-3): Active; Activity (BPH-1): Active
CC1(C)C(=O)N(c2ccc(C#N)c(C(F)(F)F)c2)C(=S)N1CCCC(=O)NO | Active | 44.9 µM | 0.39 µM | –
CC1(C)C(=O)N(c2ccc(C#N)c(C(F)(F)F)c2)C(=S)N1Cc1ccc(C(=O)Nc2ccccc2N)cc1 | – | 1.04 µM | 0.28 µM | Activity [4]: Non-Toxic; Activity (LNCaP [5]): Active; IC50 [9]: 1.6 µM; Activity (LNCaP [8]): Active; Activity (PC-3): Active; Activity (BPH-1): Active
CC1(C)C(=O)N(c2ccc(C#N)c(C(F)(F)F)c2)C(=S)N1c1ccc(C(=O)Nc2cc(-c3ccccc3)ccc2N)nc1 | – | > 1000 µM | > 10 µM | –
CC1(C)C(=O)N(c2ccc(C#N)c(C(F)(F)F)c2)C(=S)N1c1ccc(C(=O)Nc2ccccc2N)nc1 | – | 5.58 µM | 0.75 µM | –
CC1(C)C(=O)N(c2ccc(C#N)c(C(F)(F)F)c2)C(=S)N1c1ccc(C(=O)Nc2cc(-c3ccccc3)ccc2N)cn1 | – | 2.39 µM | > 10 µM | –
Nc1ccccc1NC(=O)c1ccc(CNC(=O)OCc2cccnc2)cc1 [ENTINOSTAT] | Active | – | > 10 µM | –
CC1(C)C(=O)N(c2ccc(C#N)c(C(F)(F)F)c2)C(=S)N1CCCCCC(=O)NO | Active | 1.33 µM | 1.45 µM | –
CC1(C)C(=O)N(c2ccc(C#N)c(C(F)(F)F)c2)C(=S)N1c1ccc(C(=O)Nc2ccccc2N)cn1 | – | 6.51 µM | 2.34 µM | –
CC1(C)C(=O)N(c2ccc(C#N)c(C(F)(F)F)c2)C(=S)N1CCCCCCC(=O)NO | Active | 0.99 µM | 0.39 µM | –
CC1(C)C(=O)N(c2ccc(C#N)c(C(F)(F)F)c2)C(=S)N1c1ccc(C(=O)Nc2ccccc2N)c(F)c1 | – | 2.86 µM | 1.7 µM | IC50 [9]: 2.5 µM
